Measurements from patent US8357774B2, “Polypeptide and process for producing the same” (National University Corporation Nara Institute of Science …, priority 2007, dated 2013).

Test system: NIH3T3 cell
Experiment: NIH3T3 cell adhesion on film
Format: cell-based
Conditions: seeded 10^4 cells/cm^2 in D-MEM, 5% CO2, 37° C., 1 hour, washed three times with PBS, counted at five positions
Description: A NIH3T3 cell suspended in D-MEM was added onto the resulting Gly-Arg-Gly-Asp-Ser-conjugated poly(Pro-Hyp-Gly) film at a ratio of 10^4 cells/cm^2, followed by allowing to stand in 5% CO2 at 37° C. for 1 hour. The non-adhered cell was washed out three times with PBS and the number of adhered cells was counted at five positions on the film.

For poly(Pro-Hyp-Gly), the “number of adhered cells (average)” value was 2,000 cells/cm^2.

In the case of “bovine collagen type I: Bovine collagen type I coated on a plastic dish, comparison surface”, the “number of adhered cells (average)” value is reported as 6,000 cells/cm^2.
